The record followed here is ChEMBL document CHEMBL5724696, “Autophagy assay results for EUbOPEN Chemogenomics Library” (2024).

This test has as its system TERT-RPE1. Briefly: Here: values are normalized to the negative (DMSO; defined as 0% autophagy induction) and positive (250nM Torin1; mTOR inhibitor; defined as maximal inducer of autophagy = 100%) control compounds and represented as % of autophagy induction. […] The impact of autophagy induction on cells is complex and depends on the affected target. As such, the magnitude of a phenotype may not be equally mirrored in the %-value of autophagy induction and vice versa. The dynamics of the induction may indicate the mode of activation: e.g. activation via phosphorylation or a signaling cascade may occur fast, while activation via transcription factors may take considerably longer. […] Of note, treatment concentrations may be sub-optimal for specific compounds, leading to false negative annotations. In kind it is functional, Homo sapiens. The following applies: Compound Concentration 1 uM, Culturing Media DMEM/F12 (1:1), 1 % Penicillin/Streptomycin, 10% Fetal bovin serum Add-On: No, Screening Media Control DMEM/F12 (1:1), Screening Media Samples DMEM/F12 (1:1).

With `CC(C=CC1=C(C)CCCC1(C)C)=CC=CC(C)=CC(=O)O`, the autophagy induction reads like this: (Timepoint 12 hours) -29.8215%; (Timepoint 24 hours) -16.487%; (Timepoint 36 hours) 10.9979%; (Timepoint 60 hours) 39.1731%.
For `C=C1/C(=C\C=C2/CCC[C@]3(C)[C@@H]([C@H](C)CCCC(C)(C)O)CC[C@@H]23)C[C@@H](O)C[C@@H]1O` [CALCITRIOL], in that order: 36.7455%, -4.807%, 11.5028% and -14.2726%.
On the same counts, the results for `C=C1/C(=C\C=C2/CCC[C@]3(C)[C@@H]([C@H](C)/C=C/[C@H](C)C(C)C)CC[C@@H]23)C[C@@H](O)C[C@@H]1O` [DOXERCALCIFEROL] are -0.6335%, -0.7736%, 0.8774% and -4.588%.
On the same counts, the results for `CCCCc1oc2ccccc2c1C(=O)c1cc(I)c(OCCN(CC)CC)c(I)c1.Cl` [AMIODARONE HYDROCHLORIDE] are -399.679%, -0.6341%, 14.6432% and -20.4662%.
On to `CC(C)c1c(CN(C)C(C)Cc2ccccc2)n(C)n(-c2ccccc2)c1=O` (centres undefined) [FAMPROFAZONE], for which the autophagy induction is -9.526% (Timepoint 12 hours), -5.45% (Timepoint 24 hours), -2.084% (Timepoint 36 hours) and -36.1562% (Timepoint 60 hours).
On the same counts, the results for `O=C(Nc1ccc(C(O)(C(F)(F)F)C(F)(F)F)cc1)c1ccc(C(F)(F)F)cc1` are 1.9218%, 1.011%, 4.384% and 2.099%.
Take `O=C(O)Cc1cc(I)c(Oc2ccc(O)c(I)c2)c(I)c1` [TIRATRICOL]: the autophagy induction was -9.01% (Timepoint 12 hours), -9.767% (Timepoint 24 hours), -3.577% (Timepoint 36 hours) and 11.3725% (Timepoint 60 hours).
For the compound `COc1ccc(OC(=O)N(CC(=O)O)Cc2ccc(OCCc3nc(-c4ccccc4)oc3C)cc2)cc1` [MURAGLITAZAR], the autophagy induction was 84.7945% (Timepoint 12 hours), -9.438% (Timepoint 24 hours), 5.064% (Timepoint 36 hours) and -9.533% (Timepoint 60 hours).
On the same counts, the results for `CC[C@H](C)C(=O)O[C@H]1C[C@@H](C)C=C2C=C[C@H](C)[C@H](CC[C@@H]3C[C@@H](O)CC(=O)O3)[C@H]21` [LOVASTATIN] are -7.01%, 13.8584%, 45.8036% and 48.5439%.
On the same counts, the results for `CC(C)c1onc(-c2c(Cl)cccc2Cl)c1COc1ccc(/C=C/c2cccc(C(=O)O)c2)c(Cl)c1` are -17.7139%, -8.477%, 8.951% and -22.8602%.
On to `CC(C)(C[C@H]1CN(S(=O)(=O)c2cccc(C(F)(F)F)c2)c2cc(-c3cc(F)cc(OC(F)F)c3)ccc2O1)C(=O)O` [CINTIRORGON], for which the autophagy induction is, setting by setting: (Timepoint 12 hours) -13.5912%; (Timepoint 24 hours) -2.372%; (Timepoint 36 hours) 17.7364%; (Timepoint 60 hours) -18.8569%.
On the same counts, the results for `CCc1ccc(N(CC(C)C)S(=O)(=O)c2ccc(OCC3CCOCC3)c(CO)c2)cc1` [GSK2981278] are 1.382%, -2.385%, -1.59% and 5.376%.
For `Cc1cc(SCc2sc(-c3ccc(C(F)(F)F)cc3)nc2C)ccc1OCC(=O)O` [GW501516], in that order: 35.2172%, -7.412%, 9.218% and -19.4944%.
On the same counts, the results for `CCOC(=O)c1ccc(C#Cc2ccc3c(c2)C(C)(C)CCS3)nc1` [TAZAROTENE] are -17.2771%, -27.562%, -16.2551% and 40.4791%.
Turning to `Clc1ccc(-c2nc3sccn3c2/C=N/OCc2ccc(Cl)c(Cl)c2)cc1`, the autophagy induction runs as follows: (Timepoint 12 hours) -153.599%; (Timepoint 24 hours) -9.053%; (Timepoint 36 hours) 9.503%; (Timepoint 60 hours) -19.9955%.
For `O=C(NCCS(=O)(=O)c1ccc(C(F)(F)F)cn1)c1ccc(Cl)cc1`, in that order: -3.2973%, -5.225%, 0.4695% and 10.0166%.
For `CCOC(=O)N1CCC(CN(Cc2ccc(Cl)cc2)Cc2ccc([N+](=O)[O-])s2)C1` (centres undefined) [SR9009], in that order: -2.29%, -4.7715%, -4.329% and -0.7127%.
As for `COc1ccc(-c2ccc3cc(C(=O)O)ccc3c2)cc1C12CC3CC(CC(C3)C1)C2`, the autophagy induction by setting is: (Timepoint 12 hours) -16.1508%; (Timepoint 24 hours) -22.2133%; (Timepoint 36 hours) -14.1287%; (Timepoint 60 hours) 30.465%.
On the same counts, the results for `CCCc1c(OCCCOc2ccc(OCC(=O)O)cc2)ccc(C(C)=O)c1O` are -6.598%, -4.053%, -2.5514% and -8.413%.
On the same counts, the results for `COc1cccc(Cn2cc(C(=O)Nc3ccc(C)c(S(=O)(=O)N4CCOCC4)c3)c(-c3ccc(C)cc3)n2)c1` are -3.785%, -6.106%, -1.342% and -4.917%.
As for `O=C(O)c1cc(F)c2nc(N3[C@@H]4CC[C@H]3C[C@@H](OCc3c(-c5ccccc5OC(F)(F)F)noc3C3CC3)C4)sc2c1` [TROPIFEXOR], the autophagy induction by setting is: (Timepoint 12 hours) -16.0144%; (Timepoint 24 hours) -6.889%; (Timepoint 36 hours) 7.971%; (Timepoint 60 hours) -23.0565%.
On the same counts, the results for `CCO[C@@H](Cc1ccc(OCCc2ccc(OS(C)(=O)=O)cc2)cc1)C(=O)O` [TESAGLITAZAR] are -2.81%, -1.872%, 4.96% and 2.851%.
For `CCOC(=O)Nc1ccc2c(c1)N(C(=O)CN(CC)CC)c1ccccc1CC2`, in that order: -0.6682%, 2.4649%, 6.3561% and 1.708%.
On the same counts, the results for `CC(=O)Nc1nc(C)c(S(=O)(=O)Nc2ccc(C(O)(C(F)(F)F)C(F)(F)F)cc2)s1` are 4.3226%, 10.3847%, 21.8693% and -92.7489%.
Take `CC1(C)CCC(C)(C)c2cc(C(=O)Nc3ccc(C(=O)O)cc3)ccc21`: the autophagy induction (Timepoint 12 hours) was -16.8061%, the autophagy induction (Timepoint 24 hours) is -23.3221%, the autophagy induction (Timepoint 36 hours) is reported as -14.7294% and the autophagy induction (Timepoint 60 hours) is reported as 28.5347%.
On the same counts, the results for `CC(C)(O)c1cn(-c2ccc(-c3cccc(S(C)(=O)=O)c3)cc2)c(C(C)(C)c2ccccc2Cl)n1` [BMS-779788] are -11.1228%, -2.718%, 17.5149% and -24.6575%.
Take `CN(CCOc1ccc(C[C@H](Nc2ccccc2C(=O)c2ccccc2)C(=O)O)cc1)c1ccccn1.O`: the autophagy induction runs as follows: (Timepoint 12 hours) -1.212%; (Timepoint 24 hours) -2.25%; (Timepoint 36 hours) 0.5142%; (Timepoint 60 hours) -9.85%.
On to `COC(=O)c1sccc1S(=O)(=O)Nc1ccc(Nc2ccccc2)cc1OC`, for which the autophagy induction is reported as -12.2106% (Timepoint 12 hours), -1.2% (Timepoint 24 hours), 15.0919% (Timepoint 36 hours) and -15.7117% (Timepoint 60 hours).
For the compound `Cl.O=C(O)Cc1cccc(OCCCN(Cc2cccc(C(F)(F)F)c2Cl)CC(c2ccccc2)c2ccccc2)c1`, the autophagy induction reads like this: (Timepoint 12 hours) -4.945%; (Timepoint 24 hours) -7.042%; (Timepoint 36 hours) -10.7668%; (Timepoint 60 hours) -6.3424%.
For `CC1(C)C(=O)C(C)(C)c2cc(C(=O)Nc3ccc(C(=O)O)cc3)ccc21`, in that order: -15.7037%, -5.578%, 15.5375% and -28.4557%.
For `O=S(=O)(Nc1ccc(C(O)(C(F)(F)F)C(F)(F)F)cc1)c1cccs1`, the autophagy induction runs as follows: (Timepoint 12 hours) 37.5142%; (Timepoint 24 hours) -2.586%; (Timepoint 36 hours) 11.7189%; (Timepoint 60 hours) -15.4416%.
